Measurements: PubChem BioAssay (NCI)
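96-well plates; 48 h exposure; 5 concentrations. Endpoints by linear interpolation between flanking doses. Not reached: highest tested concentration assigned. GI50 = concentration required for 50% inhibition of growth. At the TGI there is no net growth.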

Legend:
Experiment in all cases: NCI tumour cell line growth inhibition, 48 h
RXF 393 renal = test system: RXF 393 renal
SK-MEL-2 melanoma = test system: SK-MEL-2 melanoma
SNB-75 CNS = test system: SNB-75 CNS
786-0 renal = test system: 786-0 renal
A549 NSCLC = test system: A549 NSCLC
ACHN renal = test system: ACHN renal
BT-549 breast = test system: BT-549 breast
CAKI-1 renal = test system: CAKI-1 renal
CCRF-CEM leukemia = test system: CCRF-CEM leukemia
COLO 205 colon = test system: COLO 205 colon
DU-145 prostate = test system: DU-145 prostate
EKVX NSCLC = test system: EKVX NSCLC
HCC-2998 colon = test system: HCC-2998 colon
HCT-116 colon = test system: HCT-116 colon
HCT-15 colon = test system: HCT-15 colon
HL-60(TB) leukemia = test system: HL-60(TB) leukemia
HOP-62 NSCLC = test system: HOP-62 NSCLC
HOP-92 NSCLC = test system: HOP-92 NSCLC
HS 578T breast = test system: HS 578T breast
HT29 colon = test system: HT29 colon
IGROV1 ovarian = test system: IGROV1 ovarian
K-562 leukemia = test system: K-562 leukemia
KM12 colon = test system: KM12 colon
LOX IMVI melanoma = test system: LOX IMVI melanoma
M14 melanoma = test system: M14 melanoma
MALME-3M melanoma = test system: MALME-3M melanoma
MCF7 breast = test system: MCF7 breast
MDA-MB-231 breast = test system: MDA-MB-231 breast
MDA-MB-435 = test system: MDA-MB-435
MOLT-4 leukemia = test system: MOLT-4 leukemia
NCI-H226 lung = test system: NCI-H226 lung
NCI-H23 lung = test system: NCI-H23 lung
NCI-H460 lung = test system: NCI-H460 lung
NCI-H522 lung = test system: NCI-H522 lung
NCI/ADR-RES ovarian = test system: NCI/ADR-RES ovarian
OVCAR-3 ovarian = test system: OVCAR-3 ovarian
OVCAR-4 ovarian = test system: OVCAR-4 ovarian
OVCAR-5 ovarian = test system: OVCAR-5 ovarian
OVCAR-8 ovarian = test system: OVCAR-8 ovarian
PC-3 prostate = test system: PC-3 prostate
RPMI-8226 leukemia = test system: RPMI-8226 leukemia
SF-268 CNS = test system: SF-268 CNS
SF-295 CNS = test system: SF-295 CNS
SF-539 CNS = test system: SF-539 CNS
SK-MEL-28 melanoma = test system: SK-MEL-28 melanoma
SK-MEL-5 melanoma = test system: SK-MEL-5 melanoma
SK-OV-3 ovarian = test system: SK-OV-3 ovarian
SN12C renal = test system: SN12C renal
SNB-19 CNS = test system: SNB-19 CNS
SR leukemia = test system: SR leukemia
SW-620 colon = test system: SW-620 colon
T-47D breast = test system: T-47D breast
TK-10 renal = test system: TK-10 renal
U251 CNS = test system: U251 CNS
UACC-257 melanoma = test system: UACC-257 melanoma
UACC-62 melanoma = test system: UACC-62 melanoma
UO-31 renal = test system: UO-31 renal

SMILES: ClCC[N+]12CC[N+](CCCl)(CC1)C2 (tested in a mixture with another compound)
- GI50 (RXF 393 renal): 85.4 µM
- GI50 (SK-MEL-2 melanoma): 43.2 µM
- GI50 (SNB-75 CNS): 58.6 µM

SMILES: Cc1cc(OCc2nnc3n2N=C(c2ccc(Cl)cc2Cl)CS3)ccc1Cl
- GI50 (786-0 renal): > 100 µM
- TGI (786-0 renal): > 100 µM
- GI50 (A549 NSCLC): 56.3 µM
- TGI (A549 NSCLC): > 100 µM
- GI50 (ACHN renal): 45.4 µM
- TGI (ACHN renal): > 100 µM
- GI50 (BT-549 breast): 25.9 µM
- TGI (BT-549 breast): > 100 µM
- GI50 (CAKI-1 renal): 44.2 µM
- TGI (CAKI-1 renal): > 100 µM
- GI50 (CCRF-CEM leukemia): 42.2 µM
- TGI (CCRF-CEM leukemia): > 100 µM
- GI50 (COLO 205 colon): 60.2 µM
- TGI (COLO 205 colon): > 100 µM
- GI50 (DU-145 prostate): 69.7 µM
- TGI (DU-145 prostate): > 100 µM
- GI50 (EKVX NSCLC): 6.89 µM
- TGI (EKVX NSCLC): 81.2 µM
- GI50 (HCC-2998 colon): 68.6 µM
- TGI (HCC-2998 colon): > 100 µM
- GI50 (HCT-116 colon): 53 µM
- TGI (HCT-116 colon): > 100 µM
- GI50 (HCT-15 colon): 39.4 µM
- TGI (HCT-15 colon): > 100 µM
- GI50 (HL-60(TB) leukemia): 45.9 µM
- TGI (HL-60(TB) leukemia): > 100 µM
- GI50 (HOP-62 NSCLC): > 100 µM
- TGI (HOP-62 NSCLC): > 100 µM
- GI50 (HOP-92 NSCLC): > 100 µM
- TGI (HOP-92 NSCLC): > 100 µM
- GI50 (HS 578T breast): 37.9 µM
- TGI (HS 578T breast): > 100 µM
- GI50 (HT29 colon): 59.8 µM
- TGI (HT29 colon): > 100 µM
- GI50 (IGROV1 ovarian): 52.3 µM
- TGI (IGROV1 ovarian): > 100 µM
- GI50 (K-562 leukemia): 54.7 µM
- TGI (K-562 leukemia): > 100 µM
- GI50 (KM12 colon): 53.3 µM
- TGI (KM12 colon): > 100 µM
- GI50 (LOX IMVI melanoma): 36.3 µM
- TGI (LOX IMVI melanoma): > 100 µM
- GI50 (M14 melanoma): 43.4 µM
- TGI (M14 melanoma): > 100 µM
- GI50 (MALME-3M melanoma): 68.9 µM
- TGI (MALME-3M melanoma): > 100 µM
- GI50 (MCF7 breast): 39.1 µM
- TGI (MCF7 breast): > 100 µM
- GI50 (MDA-MB-231 breast): 30.8 µM
- TGI (MDA-MB-231 breast): 90.4 µM
- GI50 (MDA-MB-435): 26.5 µM
- TGI (MDA-MB-435): > 100 µM
- GI50 (MOLT-4 leukemia): 47.7 µM
- TGI (MOLT-4 leukemia): > 100 µM
- GI50 (NCI-H226 lung): 43.6 µM
- TGI (NCI-H226 lung): > 100 µM
- GI50 (NCI-H23 lung): 61 µM
- TGI (NCI-H23 lung): > 100 µM
- GI50 (NCI-H460 lung): 62.8 µM
- TGI (NCI-H460 lung): > 100 µM
- GI50 (NCI-H522 lung): 22.6 µM
- TGI (NCI-H522 lung): 65 µM
- GI50 (NCI/ADR-RES ovarian): 51.8 µM
- TGI (NCI/ADR-RES ovarian): > 100 µM
- GI50 (OVCAR-3 ovarian): 35.9 µM
- TGI (OVCAR-3 ovarian): > 100 µM
- GI50 (OVCAR-4 ovarian): 59.6 µM
- TGI (OVCAR-4 ovarian): > 100 µM
- GI50 (OVCAR-5 ovarian): > 100 µM
- TGI (OVCAR-5 ovarian): > 100 µM
- GI50 (OVCAR-8 ovarian): 45 µM
- TGI (OVCAR-8 ovarian): > 100 µM
- GI50 (PC-3 prostate): 51.3 µM
- TGI (PC-3 prostate): > 100 µM
- GI50 (RPMI-8226 leukemia): 40.6 µM
- TGI (RPMI-8226 leukemia): > 100 µM
- GI50 (RXF 393 renal): 52.2 µM
- TGI (RXF 393 renal): > 100 µM
- GI50 (SF-268 CNS): 73.4 µM
- TGI (SF-268 CNS): > 100 µM
- GI50 (SF-295 CNS): 28.4 µM
- TGI (SF-295 CNS): > 100 µM
- GI50 (SF-539 CNS): > 100 µM
- TGI (SF-539 CNS): > 100 µM
- GI50 (SK-MEL-2 melanoma): 76.2 µM
- TGI (SK-MEL-2 melanoma): > 100 µM
- GI50 (SK-MEL-28 melanoma): 79.3 µM
- TGI (SK-MEL-28 melanoma): > 100 µM
- GI50 (SK-MEL-5 melanoma): 25.6 µM
- TGI (SK-MEL-5 melanoma): > 100 µM
- GI50 (SK-OV-3 ovarian): > 100 µM
- TGI (SK-OV-3 ovarian): > 100 µM
- GI50 (SN12C renal): 38.7 µM
- TGI (SN12C renal): > 100 µM
- GI50 (SNB-19 CNS): 97.2 µM
- TGI (SNB-19 CNS): > 100 µM
- GI50 (SR leukemia): 43.3 µM
- TGI (SR leukemia): > 100 µM
- GI50 (SW-620 colon): > 100 µM
- TGI (SW-620 colon): > 100 µM
- GI50 (T-47D breast): 40.5 µM
- TGI (T-47D breast): > 100 µM
- GI50 (TK-10 renal): 32 µM
- TGI (TK-10 renal): > 100 µM
- GI50 (U251 CNS): 71.3 µM
- TGI (U251 CNS): > 100 µM
- GI50 (UACC-257 melanoma): 42.1 µM
- TGI (UACC-257 melanoma): 93.2 µM
- GI50 (UACC-62 melanoma): 34.4 µM
- TGI (UACC-62 melanoma): > 100 µM
- GI50 (UO-31 renal): 34 µM
- TGI (UO-31 renal): > 100 µM
